Here are results for six molecules from PubChem BioAssay AID2047 (NMMLSC, 2009).

In general, Ki refers to the equilibrium dissociation constant of an inhibitor or competing ligand from its target.

GTPase HRas (Homo sapiens), sequence (P01112 whole entry, looked up): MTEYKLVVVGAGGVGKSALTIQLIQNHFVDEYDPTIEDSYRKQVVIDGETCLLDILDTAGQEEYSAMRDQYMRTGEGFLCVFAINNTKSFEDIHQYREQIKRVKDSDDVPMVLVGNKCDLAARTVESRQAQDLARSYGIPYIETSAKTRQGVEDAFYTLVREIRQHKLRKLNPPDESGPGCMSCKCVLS

This assay concerns the target GTPase HRas (Homo sapiens) (UniProt P01112). The assay can be described thus: inhibition of fluorescent GTP binding to wild-type Ras – biochemical, pyrazoline analogs, multiplex bead flow cytometry, SAR follow-up (AID 2047). Particulars: GST-Ras beads, Bodipy-FL-GTP binding, Ki calculated from EC50.
For the molecule `NS(=O)(=O)c1ccc(N2N=C(c3ccc(Cl)cc3)CC2c2ccccc2)cc1` (stereo unspecified), the Ki is 10 nM. Under `COc1ccc(C2=NN(c3ccccc3)C(c3ccccc3C(F)(F)F)C2)cc1` (stereo unspecified) stands 2770 nM; under `COc1ccc(C2CC(c3ccc(Cl)cc3)=NN2c2ccccc2)cc1OC` (stereo unspecified), 10 nM; under `CN(C)c1ccc(C2CC(c3ccccc3)=NN2c2ccccc2)cc1` (stereo unspecified), 10 nM. To `COc1ccc(C2=NN(c3ccccc3F)C(c3ccc(F)cc3)C2)cc1` (stereo unspecified) belongs 2110 nM; to `COc1ccc(C2CC(c3ccccc3)=NN2c2ccc(Cl)c(C(=O)O)c2)cc1` (stereo unspecified), 160 nM.
